Reference: patent US20120010075A1 (priority 2009, published 2012)

Tested on: Phytophthora infestans
Assay: not given
Type: in vivo, Phytophthora infestans on tomato
Conditions: hydrazone 50 ppm + 50 μM CuCl2.2H2O, applied 24 h before inoculation, assessed 7 days after inoculation, tomato

In order of falling “TLB % Control” value:
1. O=C(N/N=C/c1cc(Cl)cc(Cl)c1O)c1cccc([N+](=O)[O-])c1 [Example 248]  98.0%
2. O=C(N/N=C/c1cc(Cl)cc(Br)c1O)c1cc(Cl)ccc1Cl [Example 196]  94.5%
3. COc1ccc(Br)c(/C=N/NC(=O)c2ccccc2)c1O [Example 243]  86.4%
4. O=C(N/N=C/c1c(Cl)ccc(Cl)c1O)c1ccccc1 [Example 247]  84.7%
5. Cc1ccc(O)c(/C=N/NC(=O)c2ccccc2)c1 [Example 235]  80.0%
6. O=C(N/N=C/c1c(O)cc(Cl)cc1Cl)c1ccccc1 [Example 242]  78.0%
7. O=C(N/N=C/c1cc(Cl)c(Cl)cc1O)c1ccccc1 [Example 240]  74.6%
8. Cc1ccc(/C=N/NC(=O)c2ccccc2)c(O)c1 [Example 234]  72.9%
9. O=C(N/N=C/c1cc(Cl)ccc1O)c1cc(Cl)ccc1Cl [Example 189]  72.7%
10. COc1cc(Br)cc(/C=N/NC(=O)c2cc(C)cc(C)c2)c1O [Example 209]  67.3%
11. Cc1cc(O)c(/C=N/NC(=O)c2ccccc2)cc1Cl [Example 239]  66.1%
12. O=C(N/N=C/c1c(O)ccc(Cl)c1Cl)c1ccccc1 [Example 241]  62.7%
13. O=C(N/N=C/c1c(F)ccc(F)c1O)c1ccccc1 [Example 244]  62.7%
14. Cc1cccc(/C=N/NC(=O)c2ccccc2)c1O [Example 232]  57.6%
15. O=C(N/N=C/c1c(O)cccc1F)c1ccccc1 [Example 245]  52.7%
16. O=C(N/N=C/c1cc([N+](=O)[O-])cc(Br)c1O)c1cccc(Cl)c1 [Example 201]  50.9%
17. Cc1cccc(O)c1/C=N/NC(=O)c1ccccc1 [Example 246]  50.9%
18. COc1cccc(O)c1/C=N/NC(=O)c1ccccc1 [Example 237]  45.0%
19. Cc1cc(C)cc(C(=O)N/N=C/c2cc([N+](=O)[O-])cc(Br)c2O)c1 [Example 208]  32.8%
20. Cc1cc(C)cc(C(=O)N(/N=C/c2cc(Cl)cc(Cl)c2O)C(C)(C)C)c1 [Example 211]  16.0%
21. CC(C)(C)N(/N=C/c1ccccc1O)C(=O)c1ccccc1 [Example 217]  0.0%

Tested on: Leptosphaeria nodorum (LEPTNO)
Assay: In vitro fungitoxicity of hydrazones with and without copper towards Leptosphaeria nodorum (Example 26)
Type: cell-based
Conditions: Parastagonospora nodorum, 72 h, compound 0.05 μg/mL, copper-minus medium, 72 h at 25° C.; read-out: LEPTNO % Inhn. Minus Copper Observed

In order of falling inhibition of growth at 0.05 µg/mL:
1. O=C(N/N=C/c1cc(Cl)ccc1O)c1cc(Cl)ccc1Cl [Example 189]  19.2%
2. COc1cc(Br)cc(/C=N/NC(=O)c2cc(C)cc(C)c2)c1O [Example 209]  17.6%
3. O=C(N/N=C/c1cc(Cl)cc(Cl)c1O)c1cccc([N+](=O)[O-])c1 [Example 248]  12.4%
4. O=C(N/N=C/c1c(Cl)ccc(Cl)c1O)c1ccccc1 [Example 247]  10.1%
5. Cc1cc(C)cc(C(=O)N(/N=C/c2cc(Cl)cc(Cl)c2O)C(C)(C)C)c1 [Example 211]  7%
6. O=C(N/N=C/c1c(O)cc(Cl)cc1Cl)c1ccccc1 [Example 242]  6.9%
7. Cc1cc(C)cc(C(=O)N/N=C/c2cc([N+](=O)[O-])cc(Br)c2O)c1 [Example 208]  5.4%
8. COc1ccc(Br)c(/C=N/NC(=O)c2ccccc2)c1O [Example 243]  5.3%
9. O=C(N/N=C/c1cc(Cl)cc(Br)c1O)c1cc(Cl)ccc1Cl [Example 196]  4.4%
10. O=C(N/N=C/c1cc([N+](=O)[O-])cc(Br)c1O)c1cccc(Cl)c1 [Example 201]  4%
11. Cc1cccc(/C=N/NC(=O)c2ccccc2)c1O [Example 232]  2.3%
12. O=C(N/N=C/c1c(O)ccc(Cl)c1Cl)c1ccccc1 [Example 241]  0.5%
13. Cc1cc(O)c(/C=N/NC(=O)c2ccccc2)cc1Cl [Example 239]  0.1%
14. CC(C)(C)N(/N=C/c1ccccc1O)C(=O)c1ccccc1 [Example 217]  0%
15. Cc1ccc(/C=N/NC(=O)c2ccccc2)c(O)c1 [Example 234]  0%
16. Cc1ccc(O)c(/C=N/NC(=O)c2ccccc2)c1 [Example 235]  0%
17. COc1cccc(O)c1/C=N/NC(=O)c1ccccc1 [Example 237]  0%
18. O=C(N/N=C/c1cc(Cl)c(Cl)cc1O)c1ccccc1 [Example 240]  0%
19. O=C(N/N=C/c1c(F)ccc(F)c1O)c1ccccc1 [Example 244]  0%
20. O=C(N/N=C/c1c(O)cccc1F)c1ccccc1 [Example 245]  0%
21. Cc1cccc(O)c1/C=N/NC(=O)c1ccccc1 [Example 246]  0%

Same assay, conditions: compound 0.05 μg/mL, copper-plus medium (CuCl2.2H2O), 72 h at 25° C.

In order of rising “LEPTNO % Inhn. Plus Copper Observed” value:
1. COc1cccc(O)c1/C=N/NC(=O)c1ccccc1 [Example 237]  91.8%
2. CC(C)(C)N(/N=C/c1ccccc1O)C(=O)c1ccccc1 [Example 217]  92.7%
3. O=C(N/N=C/c1c(Cl)ccc(Cl)c1O)c1ccccc1 [Example 247]  94.0%
4. Cc1ccc(/C=N/NC(=O)c2ccccc2)c(O)c1 [Example 234]  94.3%
5. Cc1cccc(O)c1/C=N/NC(=O)c1ccccc1 [Example 246]  95.3%
6. O=C(N/N=C/c1cc(Cl)ccc1O)c1cc(Cl)ccc1Cl [Example 189]  95.9%
7. COc1cc(Br)cc(/C=N/NC(=O)c2cc(C)cc(C)c2)c1O [Example 209]  95.9%
8. O=C(N/N=C/c1cc([N+](=O)[O-])cc(Br)c1O)c1cccc(Cl)c1 [Example 201]  96.0%
9. O=C(N/N=C/c1c(F)ccc(F)c1O)c1ccccc1 [Example 244]  96.1%
10. Cc1ccc(O)c(/C=N/NC(=O)c2ccccc2)c1 [Example 235]  96.3%
11. O=C(N/N=C/c1cc(Cl)cc(Cl)c1O)c1cccc([N+](=O)[O-])c1 [Example 248]  96.3%
12. COc1ccc(Br)c(/C=N/NC(=O)c2ccccc2)c1O [Example 243]  96.7%
13. O=C(N/N=C/c1c(O)cccc1F)c1ccccc1 [Example 245]  96.7%
14. Cc1cc(C)cc(C(=O)N/N=C/c2cc([N+](=O)[O-])cc(Br)c2O)c1 [Example 208]  97.0%
15. O=C(N/N=C/c1c(O)ccc(Cl)c1Cl)c1ccccc1 [Example 241]  97.0%
16. Cc1cc(C)cc(C(=O)N(/N=C/c2cc(Cl)cc(Cl)c2O)C(C)(C)C)c1 [Example 211]  97.1%
17. Cc1cccc(/C=N/NC(=O)c2ccccc2)c1O [Example 232]  97.5%
18. O=C(N/N=C/c1cc(Cl)cc(Br)c1O)c1cc(Cl)ccc1Cl [Example 196]  97.7%
19. Cc1cc(O)c(/C=N/NC(=O)c2ccccc2)cc1Cl [Example 239]  97.8%
20. O=C(N/N=C/c1c(O)cc(Cl)cc1Cl)c1ccccc1 [Example 242]  98.0%
21. O=C(N/N=C/c1cc(Cl)c(Cl)cc1O)c1ccccc1 [Example 240]  98.1%

Tested on: not given
Assay: not given
Conditions: not given

Compared with O=C(N/N=C/c1cc(Cl)ccc1O)c1cc(Cl)ccc1Cl [Example 189], O=C(N/N=C/c1cc(Cl)cc(Br)c1O)c1cc(Cl)ccc1Cl [Example 196] is lower in melting point: 185 to 188 °C for the first, 169 to 173 °C for the second.

Compared with O=C(N/N=C/c1cc([N+](=O)[O-])cc(Br)c1O)c1cccc(Cl)c1 [Example 201], O=C(N/N=C/c1cc(Cl)cc(Cl)c1O)c1cccc([N+](=O)[O-])c1 [Example 248] is lower in melting point: 276 to 280 °C for the first, 234 to 237 °C for the second.

First: Cc1cc(C)cc(C(=O)N/N=C/c2cc([N+](=O)[O-])cc(Br)c2O)c1 [Example 208]
Second: COc1cc(Br)cc(/C=N/NC(=O)c2cc(C)cc(C)c2)c1O [Example 209]
The melting point of the first is higher: 283 to 300 °C for the first, 189 to 193 °C for the second.

First: Cc1cc(C)cc(C(=O)N(/N=C/c2cc(Cl)cc(Cl)c2O)C(C)(C)C)c1 [Example 211]
Second: CC(C)(C)N(/N=C/c1ccccc1O)C(=O)c1ccccc1 [Example 217]
The melting point of the first is higher: 220 to 227 °C for the first, 91 to 104 °C for the second.

Compared with Cc1cccc(/C=N/NC(=O)c2ccccc2)c1O [Example 232], Cc1cccc(O)c1/C=N/NC(=O)c1ccccc1 [Example 246] is higher in melting point: 186 to 188 °C for the first, 212 to 213 °C for the second.

First: Cc1ccc(/C=N/NC(=O)c2ccccc2)c(O)c1 [Example 234]
Second: Cc1ccc(O)c(/C=N/NC(=O)c2ccccc2)c1 [Example 235]
The melting point of the first is lower: 179 to 182 °C for the first, 192 to 193 °C for the second.

First: COc1cccc(O)c1/C=N/NC(=O)c1ccccc1 [Example 237]
Second: O=C(N/N=C/c1c(O)cccc1F)c1ccccc1 [Example 245]
The melting point of the first is lower: 215 to 216 °C for the first, 216 to 218 °C for the second.

Compared with Cc1cc(O)c(/C=N/NC(=O)c2ccccc2)cc1Cl [Example 239], O=C(N/N=C/c1cc(Cl)c(Cl)cc1O)c1ccccc1 [Example 240] is higher in melting point: 206 to 208 °C for the first, 238 to 241 °C for the second.

Compared with O=C(N/N=C/c1c(O)ccc(Cl)c1Cl)c1ccccc1 [Example 241], O=C(N/N=C/c1c(Cl)ccc(Cl)c1O)c1ccccc1 [Example 247] is lower in melting point: 273 to 274 °C for the first, 204 to 205 °C for the second.

First: O=C(N/N=C/c1c(O)cc(Cl)cc1Cl)c1ccccc1 [Example 242]
Second: O=C(N/N=C/c1c(F)ccc(F)c1O)c1ccccc1 [Example 244]
The melting point of the first is higher: 273 to 274 °C for the first, 206 to 207 °C for the second.

COc1ccc(Br)c(/C=N/NC(=O)c2ccccc2)c1O [Example 243] gave a melting point of 187 to 189 °C.
